Source: ChEMBL document CHEMBL4049381 (Medchemcomm, 2016)

What was measured:
[1] = biological target: T1, Solute carrier organic anion transporter family member 2B1 (Homo sapiens, UniProt O94956, H618Q); test: Drug uptake assessed as human OATP2B1 H618Q mutant expressed in Xenopus laevis oocyte mediated drug accumulation at 0.005 to 50 uM after 15 mins by LC-MS/MS analysis relative to wild type protein; assay type: ADME; conditions: 0.25 h
[2] = Ratio of Vmax to Km for human OATP2B1 H618Q/H579Q double mutant low affinity site expressed in Xenopus laevis oocytes assessed as transporter-mediated drug uptake per 15 mins per oocyte after 15 mins by Eadie-Hofstee plot method; assay type: ADME, cell-based; conditions: 0.25 h
[3] = biological target: T2, Solute carrier organic anion transporter family member 2B1 (Homo sapiens, UniProt O94956, H579Q); test: Drug uptake assessed as human OATP2B1 H579Q mutant expressed in Xenopus laevis oocyte mediated drug accumulation at 0.005 to 50 uM after 15 mins by LC-MS/MS analysis relative to wild type protein; assay type: ADME; conditions: 0.25 h
T2 sequence (O94956 whole entry T392I/H579Q): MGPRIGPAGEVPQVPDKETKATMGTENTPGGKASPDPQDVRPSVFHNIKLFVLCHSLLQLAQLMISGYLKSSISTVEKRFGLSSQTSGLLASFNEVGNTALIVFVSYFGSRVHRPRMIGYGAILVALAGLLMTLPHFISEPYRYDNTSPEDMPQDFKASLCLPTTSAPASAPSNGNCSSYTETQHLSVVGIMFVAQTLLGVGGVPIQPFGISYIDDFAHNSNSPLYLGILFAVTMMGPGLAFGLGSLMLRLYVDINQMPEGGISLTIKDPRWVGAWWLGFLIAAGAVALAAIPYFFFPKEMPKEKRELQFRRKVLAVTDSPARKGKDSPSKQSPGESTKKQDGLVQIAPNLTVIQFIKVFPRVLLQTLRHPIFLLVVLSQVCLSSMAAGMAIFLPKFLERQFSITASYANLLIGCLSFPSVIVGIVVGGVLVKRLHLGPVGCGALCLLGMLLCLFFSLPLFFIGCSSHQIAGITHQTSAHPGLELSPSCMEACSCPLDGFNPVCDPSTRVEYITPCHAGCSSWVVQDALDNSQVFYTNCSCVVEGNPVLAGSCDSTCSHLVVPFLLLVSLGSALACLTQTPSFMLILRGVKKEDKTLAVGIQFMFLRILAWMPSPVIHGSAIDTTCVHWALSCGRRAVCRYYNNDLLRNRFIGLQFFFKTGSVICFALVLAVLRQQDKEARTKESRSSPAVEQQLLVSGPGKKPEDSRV

[4] = biological target: T1, Solute carrier organic anion transporter family member 2B1; test: Ratio of Vmax to Km for human OATP2B1 H618Q mutant low affinity site expressed in Xenopus laevis oocytes assessed as transporter-mediated drug uptake per 15 mins per oocyte after 15 mins by Eadie-Hofstee plot method; assay type: ADME, cell-based; conditions: 0.25 h
[5] = biological target: T3, Solute carrier organic anion transporter family member 2B1 (Homo sapiens, UniProt O94956); test: Substrate activity at human OATP2B1 high affinity site expressed in Xenopus laevis oocytes assessed as Vmax for transporter-mediated drug accumulation per 15 mins per oocyte by Eadie-Hofstee plot method; assay type: ADME, cell-based; conditions: 0.25 h
T3 sequence (O94956 whole entry): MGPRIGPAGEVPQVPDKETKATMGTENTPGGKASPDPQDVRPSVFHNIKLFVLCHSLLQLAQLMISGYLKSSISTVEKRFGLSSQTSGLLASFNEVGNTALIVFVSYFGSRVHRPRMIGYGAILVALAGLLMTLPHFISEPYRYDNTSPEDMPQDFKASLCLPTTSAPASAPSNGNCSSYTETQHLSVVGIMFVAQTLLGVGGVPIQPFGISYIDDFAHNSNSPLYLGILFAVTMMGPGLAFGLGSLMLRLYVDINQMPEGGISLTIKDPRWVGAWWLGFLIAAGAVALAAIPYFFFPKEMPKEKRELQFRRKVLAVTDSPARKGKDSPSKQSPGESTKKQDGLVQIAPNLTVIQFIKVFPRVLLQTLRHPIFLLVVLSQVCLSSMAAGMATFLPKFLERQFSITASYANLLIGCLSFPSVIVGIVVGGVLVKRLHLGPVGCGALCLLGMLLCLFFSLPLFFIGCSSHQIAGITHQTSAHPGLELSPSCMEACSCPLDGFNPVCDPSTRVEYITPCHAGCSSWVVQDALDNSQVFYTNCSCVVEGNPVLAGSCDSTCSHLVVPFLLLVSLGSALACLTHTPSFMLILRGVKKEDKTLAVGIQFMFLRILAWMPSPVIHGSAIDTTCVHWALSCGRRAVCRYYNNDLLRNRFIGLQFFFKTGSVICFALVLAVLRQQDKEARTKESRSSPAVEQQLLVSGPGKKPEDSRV

[6] = biological target: T3, Solute carrier organic anion transporter family member 2B1; test: Drug uptake assessed as OATP2B1 low affinity site (unknown origin)-mediated drug uptake in presence of 1 mM pravastatin relative to control; assay type: ADME
[7] = biological target: T3, Solute carrier organic anion transporter family member 2B1; test: Drug uptake assessed as OATP2B1 high affinity site (unknown origin)-mediated drug uptake in presence of 1 mM sulfasalazine relative to control; assay type: ADME
[8] = biological target: T3, Solute carrier organic anion transporter family member 2B1; test: Ratio of Vmax to Km for human OATP2B1 low affinity site expressed in Xenopus laevis oocytes assessed as transporter-mediated drug uptake per 15 mins per oocyte after 15 mins by Eadie-Hofstee plot method; assay type: ADME, cell-based; conditions: 0.25 h
[9] = Substrate activity at human OATP2B1 H579Q/H618Q double mutant high affinity site expressed in Xenopus laevis oocytes assessed as Vmax for transporter-mediated drug accumulation per 15 mins per oocyte by Eadie-Hofstee plot method; assay type: ADME, cell-based; conditions: 0.25 h
[10] = biological target: T3, Solute carrier organic anion transporter family member 2B1; test: Substrate activity at human OATP2B1 low affinity site expressed in Xenopus laevis oocytes assessed as Vmax for transporter-mediated drug accumulation per 15 mins per oocyte by Eadie-Hofstee plot method; assay type: ADME, cell-based; conditions: 0.25 h
[11] = biological target: T3, Solute carrier organic anion transporter family member 2B1; test: Drug uptake assessed as human OATP2B1 expressed in Xenopus laevis oocyte mediated drug accumulation per oocyte at 0.005 uM after 15 mins by LC-MS/MS analysis; assay type: ADME; conditions: 0.25 h
[12] = biological target: T3, Solute carrier organic anion transporter family member 2B1; test: Drug uptake assessed as OATP2B1 high affinity site (unknown origin)-mediated drug uptake in presence of 1 mM pravastatin relative to control; assay type: ADME
[13] = tested on: OATP2B1 H579Q/H618Q double mutant, high affinity site; test: Substrate activity at human OATP2B1 H579Q/H618Q double mutant high affinity site expressed in Xenopus laevis oocytes assessed as Km for transporter-mediated drug accumulation after 15 mins by Eadie-Hofstee plot method; assay type: ADME, cell-based
[14] = biological target: T1, Solute carrier organic anion transporter family member 2B1; test: Substrate activity at human OATP2B1 H618Q mutant low affinity site expressed in Xenopus laevis oocytes assessed as Vmax for transporter-mediated drug accumulation per 15 mins per oocyte by Eadie-Hofstee plot method; assay type: ADME, cell-based; conditions: 0.25 h
[15] = biological target: T1, Solute carrier organic anion transporter family member 2B1; test: Ratio of Vmax to Km for human OATP2B1 H618Q mutant high affinity site expressed in Xenopus laevis oocytes assessed as transporter-mediated drug uptake per 15 mins per oocyte after 15 mins by Eadie-Hofstee plot method; assay type: ADME, cell-based; conditions: 0.25 h
[16] = biological target: T3, Solute carrier organic anion transporter family member 2B1; test: Ratio of Vmax to Km for human OATP2B1 high affinity site expressed in Xenopus laevis oocytes assessed as transporter-mediated drug uptake per 15 mins per oocyte after 15 mins by Eadie-Hofstee plot method; assay type: ADME, cell-based; conditions: 0.25 h
[17] = biological target: T3, Solute carrier organic anion transporter family member 2B1; test: Drug uptake assessed as human OATP2B1 expressed in Xenopus laevis oocyte mediated drug accumulation per oocyte at 50 uM after 15 mins by LC-MS/MS analysis; assay type: ADME; conditions: 0.25 h
[18] = Ratio of Vmax to Km for human OATP2B1 H579Q/H618Q double mutant high affinity site expressed in Xenopus laevis oocytes assessed as transporter-mediated drug uptake per 15 mins per oocyte after 15 mins by Eadie-Hofstee plot method; assay type: ADME, cell-based; conditions: 0.25 h
[19] = biological target: Solute carrier organic anion transporter family member 2B1 (Homo sapiens, UniProt O94956, H219Q); test: Drug uptake assessed as human OATP2B1 H219Q mutant expressed in Xenopus laevis oocyte mediated drug accumulation at 0.005 to 50 uM after 15 mins by LC-MS/MS analysis relative to wild type protein; assay type: ADME; conditions: 0.25 h
Chain of Solute carrier organic anion transporter family member 2B1 (Homo sapiens, UniProt O94956, H219Q) (O94956 whole entry H219Q/T392I): as the sequence (O94956 whole entry T392I/H579Q) above, with H219Q, Q579H counted along it

[20] = biological target: T2, Solute carrier organic anion transporter family member 2B1; test: Drug uptake assessed as human OATP2B1 H579Q mutant expressed in Xenopus laevis oocyte mediated drug accumulation at 50 uM after 15 mins by LC-MS/MS analysis relative to wild type protein; assay type: ADME; conditions: 0.25 h
[21] = biological target: Solute carrier organic anion transporter family member 2B1 (Homo sapiens, UniProt O94956, R607A); test: Drug uptake assessed as human OATP2B1 R607A mutant expressed in Xenopus laevis oocyte mediated drug accumulation at 0.005 to 50 uM after 15 mins by LC-MS/MS analysis relative to wild type protein; assay type: ADME; conditions: 0.25 h
Chain of Solute carrier organic anion transporter family member 2B1 (Homo sapiens, UniProt O94956, R607A) (O94956 whole entry T392I/R607A): as the sequence (O94956 whole entry T392I/H579Q) above, with Q579H, R607A counted along it

[22] = tested on: OATP2B1 H618Q/H579Q double mutant, low affinity site; test: Substrate activity at human OATP2B1 H618Q/H579Q double mutant low affinity site expressed in Xenopus laevis oocytes assessed as Km for transporter-mediated drug accumulation after 15 mins by Eadie-Hofstee plot method; assay type: ADME, cell-based
[23] = biological target: T1, Solute carrier organic anion transporter family member 2B1; test: Substrate activity at human OATP2B1 H618Q mutant high affinity site expressed in Xenopus laevis oocytes assessed as Vmax for transporter-mediated drug accumulation per 15 mins per oocyte by Eadie-Hofstee plot method; assay type: ADME, cell-based; conditions: 0.25 h
[24] = biological target: T3, Solute carrier organic anion transporter family member 2B1; test: Drug uptake assessed as OATP2B1 low affinity site (unknown origin)-mediated drug uptake in presence of 1 mM sulfasalazine relative to control; assay type: ADME
[25] = Substrate activity at human OATP2B1 H618Q/H579Q double mutant low affinity site expressed in Xenopus laevis oocytes assessed as Vmax for transporter-mediated drug accumulation per 15 mins per oocyte by Eadie-Hofstee plot method; assay type: ADME, cell-based; conditions: 0.25 h
[26] = biological target: T1, Solute carrier organic anion transporter family member 2B1; test: Drug uptake assessed as human OATP2B1 H618Q mutant expressed in Xenopus laevis oocyte mediated drug accumulation at 0.005 uM after 15 mins by LC-MS/MS analysis relative to wild type protein; assay type: ADME; conditions: 0.25 h

T1 sequence (O94956 whole entry T392I/H618Q): as the sequence (O94956 whole entry T392I/H579Q) above, with Q579H, H618Q counted along it

fold change (FC) [1]: < 2
Vmax/Km [2]: 0.0987 µL
fold change (FC) [3]: < 2
Vmax/Km [4]: 0.659 µL
Vmax [5]: 0.867 pmol
Drug uptake [6]: 79%
Drug uptake [7]: < 1%
Vmax/Km [8]: 0.385 µL
Vmax [9]: 0.38 pmol
Vmax [10]: 19.8 pmol
Drug uptake [11]: 2.39 µL
Drug uptake [12]: 21%
Km at 0.25 h [13]: 0.808 µM
Vmax [14]: 60 pmol
Vmax/Km [15]: 0.269 µL
Vmax/Km [16]: 1.87 µL
Drug uptake [17]: 0.198 µL
Vmax/Km [18]: 0.471 µL
fold change (FC) [19]: < 2
Drug uptake [20]: 14%
fold change (FC) [21]: < 2
Km at 0.25 h [22]: 312 µM
Vmax [23]: 0.0402 pmol
Drug uptake [24]: < 1%
Vmax [25]: 30.9 pmol
Drug uptake [26]: 17.8%
Compound: C[C@]12CC[C@@H]3c4ccc(OS(=O)(=O)O)cc4CC[C@H]3[C@@H]1CCC2=O [ESTRONE SULFURIC ACID]
